Experimental data from ChEMBL document CHEMBL1201862, “PubChem BioAssay data set” (2004).
Activity calls are given as the source filed them.

Experiments:
[1] = target: Paired box protein Pax-8 (Homo sapiens, UniProt Q06710); assay: inhibitors of PAX8-driven TPO luciferase reporter, dose response, RMG-I cells, cherry-pick (AID 687027); type: functional, cell-based;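 further: luciferase reporter driven by Pax8 target thyroperoxidase promoter measured by SteadyGlo luminescence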
[2] = non-specific cell cytotoxicity, dose response, cytotoxicity control for PAX8 inhibitor project, plate reader, dry powder samples (AID 743021); type: functional, cell-based
[3] = HEp-2 cell cytotoxicity, dose response, cytotoxicity control for RSV inhibitor project, HTS (AID 2410); type: functional; settings: human respiratory syncytial virus
[4] = cells
[5] = target: T1, Voltage-gated N-type calcium channel alpha-1B subunit/Amyloid beta A4 precursor protein-binding family A member 1 (Homo sapiens, UniProt Q00975+Q02410); type: protein assay
[6] = target: T1, Voltage-gated N-type calcium channel alpha-1B subunit/Amyloid beta A4 precursor protein-binding family A member 1; type: protein assay; remark: listed apart in the source
[7] = target: T2, Calpain-2 catalytic subunit (Sus scrofa, UniProt P43367); assay: pig calpain II inhibitor potency, dose response, biochemical, fluorogenic peptide substrate (AID 1420); type: functional
T2 sequence (P43367 whole entry): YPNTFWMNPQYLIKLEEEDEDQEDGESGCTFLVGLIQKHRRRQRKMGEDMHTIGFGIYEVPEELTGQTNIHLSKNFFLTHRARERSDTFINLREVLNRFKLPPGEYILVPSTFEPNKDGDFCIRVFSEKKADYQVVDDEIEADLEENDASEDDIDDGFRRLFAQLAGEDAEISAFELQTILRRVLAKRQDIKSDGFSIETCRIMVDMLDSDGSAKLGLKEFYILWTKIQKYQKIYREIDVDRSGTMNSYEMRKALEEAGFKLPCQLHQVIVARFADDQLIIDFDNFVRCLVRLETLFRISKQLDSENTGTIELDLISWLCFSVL

[8] = test system: Streptococcus sp. 'group A'; assay: growth inhibition of control SK(-) GAS strain, dose response, counter-screen for streptokinase expression inhibitor project, luminescence, kanamycin, BacTiterGlo, confirmation (AID 1900); type: functional, organism-based
[9] = target: T3, Streptokinase A (Streptococcus pyogenes serotype M1, UniProt P10520); assay: S. pyogenes streptokinase expression inhibitors, potency, dose response, plasminogen activation absorbance, OD405 (AID 1914); type: functional, Streptococcus pyogenes M1 GAS;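 further: secreted streptokinase activity via plasminogen activation per viability signal from cell pellet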
T3 sequence (P10520 whole entry): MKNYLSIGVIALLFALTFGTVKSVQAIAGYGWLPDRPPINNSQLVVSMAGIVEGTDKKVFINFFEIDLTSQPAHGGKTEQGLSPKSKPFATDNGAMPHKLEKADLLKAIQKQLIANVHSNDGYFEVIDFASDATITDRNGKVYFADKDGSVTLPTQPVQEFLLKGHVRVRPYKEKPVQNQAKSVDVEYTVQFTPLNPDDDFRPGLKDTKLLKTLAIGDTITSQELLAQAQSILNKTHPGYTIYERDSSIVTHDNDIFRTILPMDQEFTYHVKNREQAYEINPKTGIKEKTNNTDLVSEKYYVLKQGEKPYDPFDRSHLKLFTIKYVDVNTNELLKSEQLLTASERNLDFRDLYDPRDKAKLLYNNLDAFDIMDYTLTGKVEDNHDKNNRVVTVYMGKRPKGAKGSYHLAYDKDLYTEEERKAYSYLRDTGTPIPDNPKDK

[10] = test system: Streptococcus; assay: Group A Streptococcus viability loss, dose response, counter-screen for streptokinase expression inhibitor project, luminescence, BacTiterGlo (AID 1915); type: functional, organism-based;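 further: potency for reduction of bacterial viability or growth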
[11] = THP-1 cell cytotoxicity, dose response, cytotoxicity control for Vif-APOBEC3G degradation inhibitor project, THP-1 cells (AID 1117359); type: functional; settings: Human immunodeficiency virus 1, THP-1
[12] = target: T4, Fatty acid synthase (Homo sapiens, UniProt P49327); assay: FAS thioesterase domain inhibitors, dose response, biochemical, endpoint fluorescence intensity, uHTS hits (AID 624327); type: functional;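 further: fluorescence from hydrolysis of an O-methyl fluorescein acyl ester substrate by the enzyme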
T4 sequence (P49327 whole entry, the tested form may be a part): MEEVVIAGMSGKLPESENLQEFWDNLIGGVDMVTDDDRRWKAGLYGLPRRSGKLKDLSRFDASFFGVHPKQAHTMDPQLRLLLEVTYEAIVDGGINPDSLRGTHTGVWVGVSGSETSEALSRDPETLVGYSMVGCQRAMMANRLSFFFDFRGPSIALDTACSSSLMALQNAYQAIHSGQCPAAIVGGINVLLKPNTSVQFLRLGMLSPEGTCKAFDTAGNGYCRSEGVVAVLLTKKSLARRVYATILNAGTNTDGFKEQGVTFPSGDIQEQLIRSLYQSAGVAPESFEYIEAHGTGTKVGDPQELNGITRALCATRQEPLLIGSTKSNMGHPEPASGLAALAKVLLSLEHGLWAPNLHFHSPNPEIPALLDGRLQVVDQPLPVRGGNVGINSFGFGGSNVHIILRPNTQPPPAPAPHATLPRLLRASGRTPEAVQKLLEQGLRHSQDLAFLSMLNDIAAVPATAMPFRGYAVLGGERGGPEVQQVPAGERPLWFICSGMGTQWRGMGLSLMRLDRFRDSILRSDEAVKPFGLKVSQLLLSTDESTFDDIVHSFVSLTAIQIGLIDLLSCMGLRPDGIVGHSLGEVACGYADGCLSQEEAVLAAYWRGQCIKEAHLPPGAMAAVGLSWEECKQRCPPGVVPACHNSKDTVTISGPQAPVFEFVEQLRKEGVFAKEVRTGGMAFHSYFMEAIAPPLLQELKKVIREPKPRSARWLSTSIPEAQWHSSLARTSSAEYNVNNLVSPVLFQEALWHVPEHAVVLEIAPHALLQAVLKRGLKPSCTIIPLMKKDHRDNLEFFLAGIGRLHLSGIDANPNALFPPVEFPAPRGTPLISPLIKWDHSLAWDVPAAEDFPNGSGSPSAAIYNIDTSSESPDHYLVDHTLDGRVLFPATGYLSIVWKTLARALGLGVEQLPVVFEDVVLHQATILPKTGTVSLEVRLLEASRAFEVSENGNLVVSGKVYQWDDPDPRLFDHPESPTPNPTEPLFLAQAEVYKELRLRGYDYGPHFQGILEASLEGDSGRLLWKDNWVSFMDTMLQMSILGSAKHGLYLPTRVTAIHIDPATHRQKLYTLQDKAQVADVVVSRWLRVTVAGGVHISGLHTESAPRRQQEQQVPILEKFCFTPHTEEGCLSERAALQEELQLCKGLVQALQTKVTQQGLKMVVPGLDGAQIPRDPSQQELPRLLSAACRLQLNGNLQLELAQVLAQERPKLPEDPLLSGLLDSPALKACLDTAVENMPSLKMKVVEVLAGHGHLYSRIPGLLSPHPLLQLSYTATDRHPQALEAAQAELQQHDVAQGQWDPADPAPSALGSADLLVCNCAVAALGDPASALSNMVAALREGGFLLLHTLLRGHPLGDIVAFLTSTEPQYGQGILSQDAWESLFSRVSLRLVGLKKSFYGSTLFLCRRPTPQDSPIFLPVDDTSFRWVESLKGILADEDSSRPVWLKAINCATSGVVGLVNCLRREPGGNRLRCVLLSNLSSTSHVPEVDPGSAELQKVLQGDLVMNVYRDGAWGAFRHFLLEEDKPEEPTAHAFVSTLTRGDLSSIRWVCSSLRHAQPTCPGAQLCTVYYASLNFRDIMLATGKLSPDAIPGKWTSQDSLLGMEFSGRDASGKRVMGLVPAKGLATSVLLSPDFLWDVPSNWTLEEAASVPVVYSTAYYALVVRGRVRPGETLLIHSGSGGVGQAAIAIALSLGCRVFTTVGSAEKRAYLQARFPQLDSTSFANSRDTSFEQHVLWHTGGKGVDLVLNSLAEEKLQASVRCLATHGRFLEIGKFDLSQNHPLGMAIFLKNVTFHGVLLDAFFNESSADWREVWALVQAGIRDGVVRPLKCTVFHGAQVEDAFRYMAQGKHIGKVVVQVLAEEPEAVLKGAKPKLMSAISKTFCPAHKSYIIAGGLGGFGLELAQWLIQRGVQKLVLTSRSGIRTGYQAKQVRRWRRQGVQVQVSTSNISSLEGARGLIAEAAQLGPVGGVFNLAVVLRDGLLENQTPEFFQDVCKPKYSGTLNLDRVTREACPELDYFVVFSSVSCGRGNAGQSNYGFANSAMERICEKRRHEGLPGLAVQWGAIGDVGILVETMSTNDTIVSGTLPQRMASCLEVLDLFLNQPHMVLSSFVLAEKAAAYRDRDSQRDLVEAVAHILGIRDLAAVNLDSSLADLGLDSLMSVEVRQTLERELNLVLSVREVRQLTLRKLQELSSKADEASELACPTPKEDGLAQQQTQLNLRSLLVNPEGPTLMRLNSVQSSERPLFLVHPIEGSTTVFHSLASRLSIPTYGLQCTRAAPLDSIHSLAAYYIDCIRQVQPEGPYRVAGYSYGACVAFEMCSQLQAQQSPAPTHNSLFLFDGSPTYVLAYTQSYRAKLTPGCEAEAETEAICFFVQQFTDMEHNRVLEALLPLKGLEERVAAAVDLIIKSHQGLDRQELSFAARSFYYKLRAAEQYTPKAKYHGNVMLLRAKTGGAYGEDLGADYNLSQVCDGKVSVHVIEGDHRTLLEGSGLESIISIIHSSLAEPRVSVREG

[13] = target: T4, Fatty acid synthase; assay: FAS thioesterase domain inhibitors, dose response, biochemical, kinetic fluorescence intensity (AID 624326); type: functional;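 further: rate of fluorescence rise from hydrolysis of a fluorogenic O-methyl fluorescein ester substrate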
[14] = target: Large T antigen (Simian virus 40, UniProt P03070); type: functional, Betapolyomavirus macacae;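 further: Confirmatory-stage PubChem screen for compounds that inhibit SV40 T antigen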
Sequence of Large T antigen (P03070 whole entry): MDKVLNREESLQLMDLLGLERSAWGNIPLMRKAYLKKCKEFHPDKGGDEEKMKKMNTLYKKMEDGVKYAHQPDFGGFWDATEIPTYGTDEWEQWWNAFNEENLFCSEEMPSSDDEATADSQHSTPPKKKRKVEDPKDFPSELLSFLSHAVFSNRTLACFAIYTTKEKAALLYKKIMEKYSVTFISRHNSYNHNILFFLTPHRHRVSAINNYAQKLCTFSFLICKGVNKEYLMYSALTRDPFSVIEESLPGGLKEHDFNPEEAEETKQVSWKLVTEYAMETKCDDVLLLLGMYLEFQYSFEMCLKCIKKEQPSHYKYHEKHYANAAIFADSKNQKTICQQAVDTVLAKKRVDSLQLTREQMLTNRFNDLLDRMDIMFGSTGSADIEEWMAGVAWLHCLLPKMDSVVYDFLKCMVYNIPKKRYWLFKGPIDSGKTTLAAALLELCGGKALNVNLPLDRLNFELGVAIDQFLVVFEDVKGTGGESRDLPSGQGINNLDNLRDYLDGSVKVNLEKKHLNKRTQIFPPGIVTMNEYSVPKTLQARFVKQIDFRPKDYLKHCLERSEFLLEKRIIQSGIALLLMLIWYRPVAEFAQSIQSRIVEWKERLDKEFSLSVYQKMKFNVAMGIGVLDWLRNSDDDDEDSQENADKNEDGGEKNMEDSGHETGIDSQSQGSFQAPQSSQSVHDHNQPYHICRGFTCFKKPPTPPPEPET

Sequence of Paired box protein Pax-8 (Q06710 whole entry): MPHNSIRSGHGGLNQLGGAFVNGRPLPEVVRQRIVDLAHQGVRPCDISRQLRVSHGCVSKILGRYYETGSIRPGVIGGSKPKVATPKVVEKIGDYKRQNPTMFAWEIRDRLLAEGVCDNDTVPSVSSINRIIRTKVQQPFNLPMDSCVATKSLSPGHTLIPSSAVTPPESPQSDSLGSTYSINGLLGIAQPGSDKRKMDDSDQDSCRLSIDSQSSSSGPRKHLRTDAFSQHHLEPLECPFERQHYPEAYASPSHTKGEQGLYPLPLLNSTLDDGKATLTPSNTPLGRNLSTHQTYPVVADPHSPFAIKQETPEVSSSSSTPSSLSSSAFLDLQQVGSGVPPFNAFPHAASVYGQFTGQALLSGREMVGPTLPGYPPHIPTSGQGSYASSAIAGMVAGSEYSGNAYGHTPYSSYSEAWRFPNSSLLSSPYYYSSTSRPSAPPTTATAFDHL

## CC1=C(N2CC2)C(=O)C(CO)=C(N2CC2)C1=O
[1]
  AC50: < 0.26 µM (active)
[2]
  AC50: 14.8 µM (active)

## O=S(=O)(/C=C/c1ccccc1)N1CCC(c2nc(O)c3nnn(Cc4ccc(F)cc4)c3n2)CC1
[3]
  CC50: 19.1 µM (active)
[4]
  IC50: 12 µM (active)

## Cc1c(Cc2ccccc2)sc(NC(=O)c2ccco2)c1C(N)=O
[5]
  IC50: 9.09 µM (active)
[6]
  IC50: > 50 µM (inactive)

## Cc1ccc2c(CC(=O)Nc3cccc(S(=O)(=O)N4CCOCC4)c3)coc2c1
[7]
  IC50: 25.9 µM (not active)

## C=CCN1C(=O)NC(=O)/C(=C(/CC)Nc2ccc(N(C)C)cc2)C1=O
[8]
  EC50: 5.65 µM (active)
[9]
  EC50: > 150 µM (not active)
[10]
  EC50: 9.73 µM (active)
[11]
  CC50: > 40 µM (active)

## Cc1nc(SCC(=O)Nc2ccccc2)c2oc3ccccc3c2n1
[7]
  IC50: > 50 µM (not active)

## Cc1ccc([N+](=O)[O-])cc1NC(=O)C(Sc1ccccc1)c1ccccc1 (configuration not stated)
[7]
  IC50: > 50 µM (not active)
[12]
  IC50: 2.24 µM (active)
[13]
  IC50: 1.73 µM (active)

## CCN1C(=O)/C(=C\c2ccc([N+](=O)[O-])s2)C(=O)NC1=S
[14]
  IC50: 91.6 µM (active)
[11]
  CC50: > 40 µM (active)
